Laboratory results reported in PubChem BioAssay AID328 (DTP/NCI, 2004).
Several values for one entry are separate records, joined by “and”; a condition that tells them apart may be missing. Equal values may be shown once. Inconclusive results and toxic doses are left out. How the source made its calls: active means survival T/C of 150% or more; inactive means T/C below 125% in these data.

Assays:
[1] = system: BDF1 mice, P388 leukemia ip, median survival T/C; test: NCI In Vivo Anticancer Drug Screen. Data for tumor model P388 Leukemia (intraperitoneal) in B6D2F1 (BDF1) mice; conditions: endpoint: median survival time, higher = longer survival
Method in brief: (§1)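 T/C = treated-group survival ÷ vehicle-control survival; tumour transplanted into mice before dosing.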

[2] = system: BDF1 mice, P388 leukemia ip; test: as above; conditions: endpoint: mean survival time, higher = longer survival
Method in brief: as §1

[3] = dose: 50.0 mg/kg/injection, schedule: Q01DX009 (ip), vehicle: Klucel (hydroxypropylcellulose) (HPC)
[4] = dose: 12.5 mg/kg/injection, schedule: Q01DX009 (ip), vehicle: saline with Tween-80

Measured: T/C

CC(C)(O)/C=C/C(=O)[C@](C)(O)[C@H]1[C@H](O)C[C@@]2(C)[C@@H]3CC=C4[C@@H](C=C(O)C(=O)C4(C)C)[C@]3(C)C(=O)C[C@]12C
inactive: [1]; dose: 6.25 mg/kg/injection, schedule: Q01DX009 (ip), vehicle: Klucel (hydroxypropylcellulose) (HPC) 100 % of control | [1]; dose: 6.25 mg/kg/injection, schedule: Q04DX003 (ip), vehicle: other 90 % of control | [1]; dose: 12.5 mg/kg/injection, schedule: Q04DX003 (ip), vehicle: other 104 % of control | [1]; dose: 25.0 mg/kg/injection, schedule: Q01DX009 (ip), vehicle: Klucel (hydroxypropylcellulose) (HPC) 100 % of control | [1]; dose: 25.0 mg/kg/injection, schedule: Q04DX003 (ip), vehicle: other 104 % of control | [1]; [3] 100 % of control | [1]; dose: 50.0 mg/kg/injection, schedule: Q04DX003 (ip), vehicle: other 109 % of control | [2]; dose: 1.5 mg/kg/injection, schedule: Q01DX010 (ip), vehicle: carboxymethylcellulose (CMC) 97 % of control | [2]; dose: 3.0 mg/kg/injection, schedule: Q01DX010 (ip), vehicle: carboxymethylcellulose (CMC) 99 % of control | [2]; dose: 6.0 mg/kg/injection, schedule: Q01DX010 (ip), vehicle: carboxymethylcellulose (CMC) 101 % of control

CCN(CC)CCCC(C)NC(=O)c1cccc2c([N+](=O)[O-])cccc12 (centres undefined)
inactive: [2]; dose: 3.12 mg/kg/injection, schedule: Q01DX009 (ip), vehicle: water 94 % of control | [2]; dose: 12.5 mg/kg/injection, schedule: Q01DX009 (ip), vehicle: water 100 % of control | [2]; dose: 25.0 mg/kg/injection, schedule: Q01DX009 (ip), vehicle: water 110 % of control | [2]; dose: 50.0 mg/kg/injection, schedule: Q01DX009 (ip), vehicle: water 95 % of control | [2]; dose: 100.0 mg/kg/injection, schedule: Q01DX009 (ip), vehicle: water 106 % of control

CC1(C)C(=O)C(O)=CC2C1=CCC1C2(C)C(=O)CC2(C)C(C(C)(O)C(=O)CC(O)C(C)(C)O)C(O)CC12C (centres undefined)
inactive: [2]; dose: 4.5 mg/kg/injection, schedule: Q01DX010 (ip), vehicle: carboxymethylcellulose (CMC) 95 % of control | [2]; dose: 9.0 mg/kg/injection, schedule: Q01DX010 (ip), vehicle: carboxymethylcellulose (CMC) 101 % of control | [2]; dose: 36.0 mg/kg/injection, schedule: Q01DX010 (ip), vehicle: carboxymethylcellulose (CMC) 103 % of control

NC(=O)/C=C/C(=O)c1c(Cl)cccc1Cl
inactive: [1]; dose: 1.56 mg/kg/injection, schedule: Q01DX009 (ip), vehicle: saline with Tween-80 109 % of control and 115 % of control | [1]; dose: 3.13 mg/kg/injection, schedule: Q01DX009 (ip), vehicle: saline with Tween-80 118 % of control | [1]; dose: 6.25 mg/kg/injection, schedule: Q01DX009 (ip), vehicle: saline with Tween-80 123 % of control and 124 % of control | [1]; [4] 95 % of control

N=C(N)SC(c1ccccc1)c1ccccc1
inactive: [1]; dose: 100.0 mg/kg/injection, schedule: Q01DX001 (ip), vehicle: Klucel (hydroxypropylcellulose) (HPC) 100 % of control | [1]; dose: 200.0 mg/kg/injection, schedule: Q01DX001 (ip), vehicle: Klucel (hydroxypropylcellulose) (HPC) 104 % of control

CC(C)(C)OC(=O)NC(Cc1cncn1Cc1ccccc1)C(=O)NC(Cc1c[nH]c2ccccc12)C(=O)OCc1ccccc1 (centres undefined)
inactive: [1]; dose: 50.0 mg/kg/injection, schedule: Q04DX003 (ip), vehicle: saline 105 % of control | [1]; dose: 100.0 mg/kg/injection, schedule: Q04DX003 (ip), vehicle: saline 106 % of control | [1]; dose: 200.0 mg/kg/injection, schedule: Q04DX003 (ip), vehicle: saline 102 % of control | [1]; dose: 400.0 mg/kg/injection, schedule: Q04DX003 (ip), vehicle: saline 100 % of control

CC(C)NC1(C(N)=O)CCN(Cc2ccccc2)CC1
inactive: [1]; [3] 95 % of control | [1]; dose: 100.0 mg/kg/injection, schedule: Q01DX009 (ip), vehicle: Klucel (hydroxypropylcellulose) (HPC) 91 % of control | [1]; dose: 200.0 mg/kg/injection, schedule: Q01DX009 (ip), vehicle: Klucel (hydroxypropylcellulose) (HPC) 95 % of control

CCOC(=O)Nc1ccc(/C=C\c2ccnc3ccccc23)cc1
inactive: [1]; [4] 106 % of control | [1]; dose: 25.0 mg/kg/injection, schedule: Q01DX009 (ip), vehicle: saline with Tween-80 115 % of control | [1]; dose: 50.0 mg/kg/injection, schedule: Q01DX009 (ip), vehicle: saline with Tween-80 92 % of control and 94 % of control
